Assay results as given in patent publication US5869023A, “Composition for MRI comprising both a positive and a negative contrast agent” (Nycomed Imaging AS, priority 1993, dated 1999).
Entries after “also recorded” stand apart in the source; their conditions may differ.

Experiments:
[1] = system: infarcted and non-ischemic myocardium; experiment: MR imaging of excised pig hearts, double contrast (Example 5); assay type: in vivo
Method: The total occlusion time was thus 6 hours.
Following sacrifice, the hearts were extirpated and rinsed in isotonic saline to remove remaining blood. The hearts were examined ex vivo at ambient temperature in the MR equipment and then cut into approximately 8 mm thick transverse slices and soaked for 10-20 minutes in a 1% aqueous solution of triphenyltetrazolium chloride (TTC) at 37° C. TTC stains non-ischemic myocardium brick red. The slices were inspected visually for unstained areas of infarction.
MR images were obtained in an identical manner to that described in Example 4.
In the transverse images, three ROI's were placed in infarcted myocardium. Four ROI's were placed in non-ischemic myocardium, two in the anterior wall and two in the posterior wall of the left ventricle. The mean signal intensity (S) was measured in each ROI. One ROI was placed anterior to the heart in an area free from visible artefacts, in order to measure the standard deviation (SD) of the background signal. These measurements were used to calculate the contrast (C) and contrast-to-noise (C/N) ratios between infarcted (inf) and non-ischemic (nonisch) myocardium using the formulae defined in Example 4.
In each heart, non-ischemic myocardium and infarction were represented by a mean value from measurements in two slices.

myocardial infarction = details: first positive, second negative agent, sequential; cited from earlier work
[2] = system: normal and infarcted myocardium; details: rat, in vivo; for concentration ratio, reperfused infarcted vs normal myocardium: 15 min
Method: Thirty seven Sprague Dawley rats (200-400 gm) were anaesthetized by an intraperitoneal injection of sodium pentobarbital (50 mg/kg body weight). After tracheostomy, animals were ventilated using a small animal respirator. The heart was exposed following a left thoracotomy through the 4th intercostal space and a surgical suture was used to ligate the anterior branch of the left coronary artery near its origin beneath the left atrial appendage using a snare ligature. The presence of occlusion was visually confirmed by noting the development of myocardial cyanosis. After 1 hour occlusion, reperfusion was initiated by loosening the snare ligature. A catheter was placed into a femoral vein to inject contrast media. All animals which received contrast agent were administered doses at 45 minutes of reflow. After 1 hour reperfusion, each heart was excised and rinsed in 0.9% saline, patted dry with gauze, and a cotton swab was inserted into the left ventricular cavity to expand the chamber. Each heart was wrapped in clear plastic wrap to minimise dehydration during imaging.
To group 1 rats (n=9) were administered 0.2 mmol/kg of GdDTPA-BMA immediately followed by 1.0 mmol/kg of DyDTPA-BMA. Group 2 (n=7) received no contrast agents. Two spin-echo images were obtained from the midventricle of each heart, a T1-weighted image with TR/TE=300/20 and NEX=4, and T2-weighted image with TR/TE=3000/60 and NEX=2. After imaging, each heart was sliced at the midventricular level and soaked in a 2% solution of TTC at 37° C. for 15 minutes to define myocardial infarction.
Samples of normal and infarcted myocardium were retained for analysis of Gd and Dy content by means of ICP-MS.

[3] = system: normal and reperfused infarcted myocardium; experiment: MR imaging and T2/T2* relaxation of rat hearts after single agents, protocol 2 (Example 6); assay type: in vivo, Sprague Dawley rats; details: for T2, infarct / T2, normal myocardium: four-echo T2-weighted, TR=4000 ms; for GRE signal intensity, infarct / GRE signal intensity, normal myocardium: gradient recalled echo images, Dy 1.0 mmol/kg n=11 or Gd 0.2 mmol/kg n=7; for T2*, infarct / T2*, normal myocardium: gradient-recalled images, TE=10, 15, 20 and 30 ms; for SE T1 signal intensity, infarct / SE T1 signal intensity, normal myocardium: spin echo T1 weighted, TR/TE=300/20 ms; for SE T2 signal intensity, infarct / SE T2 signal intensity, normal myocardium: spin echo T2 weighted, TR/TE=4000/80 ms
Source text: Images were acquired at room temprature using a GE CSI 2.0 T system. Each heart was positioned with its long axis parallel to the main magnetic field such that axial images would present short axis views of the heart. All images were obtained using a slice thickness of 2 mm, FOV of 30 mm, and a raw data matrix of 128×256 interpolated to 256×256 during reconstruction. TR/TE settings used for spin echo images are indicated below. Gradient echo images were obtained using a TR of 600 ms, with the radio frequency pulse power set very low such that no signal saturation was evident following multiple pulses and images would contain no T1 weighting.
Group 3 (n=11) received 1.0 mmol/kg DyDTPA-BMA, group 4 (n=7) received 0.2 mmol/kg of GdDTPA-BMA and group 5 (n=7) received no contrast agents. The imaging protocol for each heart consisted of spin echo T1-weighted (TR/TE=300/20 ms, NEX=4) and T2-weighted (TR/TE=4000/80 ms; NEX=2), a set of four-echo T2-weighted images (TR=4000 ms, TE=20, 40, 60 and 80 ms, NEX=2) for estimation of regional T2 values, and a set of gradient-recalled images (TE=10, 15, 20 and 30 ms, NEX=4) for estimation of region T2* values. TTC staining of the heart was performed to verify the presence of infarction.
Signal intensities were measured from ROIs selected over infarcted and uninfarcted myocardium. The same ROIs were applied to all images obained from each heart.
A series of gradient recalled and spin echo MR images were obtained to resolve the effects of GdDTPA-BMA on T2-weighted images and DyDTPA-BMA on T1-weighted images and also to more thoroughly characterize the differences in contrast media-induced T2 and T2* enhancement between infarcted and normal myocardium. Table III summarises the observed alterations in regional signal intensity and relaxation rates following administration of either GdDTPA-BMA or DyDTPA-BMA.

[4] = system: infarcted and non-ischemic myocardium; experiment: Microdialysis kinetics of Gd and Dy in extracellular space of pig myocardium (Example 5); details: for concentration course in dialysate / duration of plateau in dialysate: infarcted myocardium; for concentration in dialysate after early peak: non-ischemic myocardium
Method: (§1) Myocardial infarction was induced in 5 anaesthetized pigs of either sex (weight 25-30 kg) by ligating a diagonal branch of the left anterior descending artery (LAD), at thoracotomy. Microdialysate probes were inserted in ischemic and non-ischemic myocardium. The pigs were sacrificed 2 hours after administration of contrast media. 4 hour post occlusion Gd-DTPA-BMA (0.3 mmol/kg) and Dy-DTPA-BMA (1.0 mmol/kg) were simultaneously administered in vivo with an injection time of one minute. The total occlusion time was thus 6 hours.
(§2) The microdialysate was collected every 10 minutes and measured for gadolinium and dysprosium using inductively coupled plasma atomic emission spectrometry (ICP-AES). The microdialysis equipment consisted of a CMA®/20 microdialysis probe with a 10 mm flexible membrane and a diameter of 0.5 mm (CMA AB, Stockholm, Sweden). […] The probe was perfused with a Krebs-Ringer phosphate buffer (pH 7.4) at a speed of 2 μl/min and a dead space, in the system, of 10 μl. […] One probe was inserted into the central part of the ischemic area and another probe was placed in non-ischemic myocardium in the lateral wall using the Seldinger technique to minimize mechanical injury to myocardium and probe membrane. A CMA® microdialysis pump (CMA 100) was used with two syringes to perfuse the probes.
(§3) In addition, gadolinium and dysprosium were determined in dialysates from five pigs by ICP-AES. Twenty μl portions were sampled in plastic tubes and kept frozen until analysis. The samples were diluted to 5.02 ml with ultra-pure water. To enhance the sensitivity of measurements, an ultrasonic nebulizer was used instead of the pneumatic one. The limit of detection for the method is about 2 μg/l for both gadolinium and dysprosium in the measuring solution. This means that about 3 μmol/l can be detected in the dialysates.

[5] = system: infarcted and nonischemic myocardium; experiment: Ex vivo MR imaging of pig hearts, myocardial infarction model (Example 4); assay type: in vivo; details: Dy DTPA-BMA 1.0 mmol/kg plus Gd DTPA-BMA 0.3 mmol/kg
Method: A control group received no contrast agent.
Following sacrifice, the hearts were extirpated and rinsed in isotonic saline to remove remaining blood. The hearts were examined ex vivo at ambient temperature in the MR equipment and then cut into thin transverse slices and soaked for about 20 minutes in a 1% aqueous solution of triphenyltetrazolium chloride (TTC) at 37° C. The slices were then visually inspected for unstained areas corresponding to infarction.
MR examination was performed in a superconductive whole body equipment (Siemens Magnetom) operating at 0.5 T. The hearts were investigated with saggital and transverse multi-slice spin-echo images with TR/TE of 500/30 (two excitations), 1500/30,70 and 1500/30,120 (single excitations) using a saddle-shaped coil with a diameter of 13 cm. The following parameters were used: Slice thickness 7 mm. Interslice gap 20%. Acquisition matrix 256×256 giving a resolution of 0.7×0.7 mm.
In the transverse images regions of interest (ROI's) were placed in infarcted and nonischemic myocardium, in a corn oil phantom and in front of the heart (noise). The mean signal intensity (SI) was measured in each ROI.
In addition, the SD was measured in the noise. […]

Human blood samples = experiment: In vitro MR imaging of contrast agent doped human blood samples, viable vs freeze-injured cells (Example 2); assay type: cell-based
Method: Human blood samples with different hematocrit readings (Ht) of 27%, 45% and 69% were prepared to provide sample models for different levels of compartmentalization between intracellular and extracellular fluids. To initiate cellular level injury, samples with these Ht readings were frozen to effect cell membrane destruction. Finally a control sample of cell free plasma was also used.
To the test samples were added (a) a positive ECF contrast agent (GdDTPA-BMA at a dosage corresponding to 0.2 mmol Gd/kg); (b) a negative ECF contrast agent (DyDTPA-BMA at a dosage corresponding to 0.6 mmol Dy/kg); and (c) a positive ECF contrast agent and a negative ECF contrast agent (GdDTPA-BMA and DyDTPA-BMA at dosages corresponding to 0.2 mmol Gd/kg and 0.6 mmol Dy/kg).
These doped samples, and controls to which no contrast agent was added, were imaged together at ambient temperature in the head coil of a Siemens Magnetom operating at 0.5 T using T1 -weighted (TR/TE 500/30 ms), T2 -weighted (TR/TE 1500/90 ms) and proton density-weighted (TR/TE 1500/30 ms) echo sequences. The signal intensity for each contrast agent doped sample was normalized to the corresponding undoped sample and the results are set forth as ratios in FIGS. 1 to 3 hereto, squares, circles and diamonds representing the ratios for T1 -weighted, PD-weighted and T2 -weighted sequences respectively.

[6] = system: infarcted and non-ischemic myocardium; details: pig, in vivo; for time of early peak in dialysate: iv
Method: as §1, §2, §3

[7] = system: infarcted and nonischemic myocardium; details: cited from earlier work; for distribution / enhancement in 6-hour-old myocardial infarction: porcine model
[8] = in vivo; cited from earlier work
[9] = system: infarcted and non-ischemic myocardium; details: pig, in vivo
Method: as §1
The total amount of gadolinium and dysprosium in samples of infarcted and non-ischemic myocardium was quantified by ICP-AES.
Paired t-tests (two-tailed) were used to compare the gadolinium and dysprosium content, respectively, in infarcted and non-ischemic myocardium within the group. […] In addition, the extracellular concentrations of gadolinium and dysprosium were further compared with the content of gadolinium and dysprosium in tissue samples.

Structure (SMILES) | distribution in infarcted heart (myocardial infarction) | metal content in infarcted region vs normal myocardium [2] | concentration ratio, reperfused infarcted vs normal myocardium [2] | differential enhancement of reperfused infarction, T1-weighted ([3]; T1-weighted images) | delineation of infarcted region, T2-weighted ([3]; T2-weighted images) | signal intensity of infarcted region, T2-weighted ([3]; T2-weighted images) | signal intensity of normal region, T2-weighted ([3]; T2-weighted images) | T2, infarct [3] | T2, normal myocardium [3] | GRE signal intensity, infarct [3] | GRE signal intensity, normal myocardium [3] | T2*, infarct [3] | T2*, normal myocardium [3] | SE T1 signal intensity, infarct [3] | SE T1 signal intensity, normal myocardium [3] | SE T2 signal intensity, infarct [3] | SE T2 signal intensity, normal myocardium [3] | concentration course in dialysate [4] | duration of plateau in dialysate [4] | concentration in dialysate after early peak [4] | other results
CNC(=O)CN(CCN(CCN(CC(=O)[O-])CC(=O)NC)CC(=O)[O-])CC(=O)[O-].[Dy+3] [DyDTPA-BMA] | allowed essentially only to distribute to the normal tissue resulting in the generation of enhanced contrast between normal and infarcted tissue | greater amount of dysprosium in the infarcted zone | approximately 2.5 fold | significant differential enhancement | delineated by both agents | much less reduction in signal of the infarcted region | great suppression of normal myocardium signal | 35.8 ± 1.0 ms | 25.9 ± 0.6 ms | 191 ± 34 | 105 ± 18 | 17.7 ± 1.2 ms | 9.4 ± 0.5 ms | 141 ± 14 | 88 ± 7 | 42 ± 4 | 12 ± 1 | increased gradually | 60 min | diminished with time | counteraction of Gd-DTPA-BMA induced signal enhancement by Dy-DTPA-BMA ([1]; all investigated sequences, infarcted tissue): not significantly counteracted; also recorded: did not counteract the Gd-DTPA-BMA induced enhancement of the infarcted tissue; susceptibility induced (Dy induced) signal intensity reduction in infarctions ([1]; infarctions): lack of detectable susceptibility induced (i.e. Dy induced) signal intensity reduction effects in the infarctions; contrast between infarcted and normal region vs both agents ([3]; T2-weighted images): greater contrast between the two regions than was noted when both agents were administered; effect of negative agent on T1 enhancing effect of positive agent in infarcted area [5]: does not cancel the T1 enhancing effect of the positive agent in the infarcted area; signal intensity, "viable" sample (Human blood samples; all sequences, most markedly T2-weighted): signal intensity fell with increasing Ht reading; signal intensity, "non-viable" samples (Human blood samples; frozen samples, all sequences): no effect; time to plateau concentration in dialysate [6]: 20 to 30 min; time of early peak in dialysate [6]: ≤ 10 min; infarct detection / conspicuity ([7]; T1- and T2-weighted sequences): improves the infarct detection due to susceptibility-induced loss of signal intensity in nonischemic myocardium; signal effect of accumulation in infarcted myocardium ([7]; infarcted myocardium): does not seem to result in signal loss but maintains a persistent intensity relative to the depleted signal in normal myocardium
CNC[C@H](O)[C@@H](O)[C@H](O)[C@H](O)CO.CNC[C@H](O)[C@@H](O)[C@H](O)[C@H](O)CO.O=C([O-])CN(CCN(CC(=O)[O-])CC(=O)O)CCN(CC(=O)[O-])CC(=O)O.[Gd+3] [Gd DTPA-dimeglumine] | – | – | – | – | – | – | – | – | – | – | – | – | – | – | – | – | – | – | – | – | distribution after intravenous administration [8]: rapidly distributes throughout the extracellular fluid (ECF)
O=C([O-])CN(CCN(CC(=O)[O-])CC(=O)O)CCN(CC(=O)[O-])CC(=O)O.[Gd+3] [Gd-DTPA, reference compound] | – | – | – | – | – | – | – | – | – | – | – | – | – | – | – | – | – | – | – | – | distribution / enhancement in 6-hour-old myocardial infarction [7]: infarct accumulation
CNC(=O)CN(CCN(CCN(CC(=O)[O-])CC(=O)NC)CC(=O)[O-])CC(=O)[O-].[Gd+3] [GdDTPA-BMA, reference compound] | distributed to the infarcted area of the heart | commensurably greater content of gadolinium in that region than in normal myocardium | approximately 2.5 fold | significant differential enhancement | delineated by both agents | significantly reduced compared to hearts with no contrast | not different from that of hearts with no contrast | 31.1 ± 1.2 ms | 34.7 ± 0.7 ms | 185 ± 49 | 200 ± 40 | 13.2 ± 1.5 ms | 17.1 ± 2.2 ms | 350 ± 34 | 184 ± 21 | 35 ± 7 | 42 ± 4 | increased gradually | 60 min | diminished with time | infarction signal / visualization ([1]; T1- and proton density-weighted, vs no contrast agent or Dy-DTPA-BMA only): enhanced infarction signal in the T1- and proton density-weighted sequences, resulting in improved infarction visualization; enhancement of infarcted region, single agent vs both agents ([3]; T1-weighted images): significantly less than that noted when both agents were present; signal intensity ratio (doped/undoped), T1-weighted (Human blood samples; T1-weighted TR/TE 500/30 ms, 0.5 T): increased signal intensity effect; signal intensity ratio (doped/undoped), other sequences (Human blood samples; T2-weighted (1500/90) and proton density-weighted (1500/30)): barely noticed in the other sequences; discrimination between "viable" and "non-viable" samples (Human blood samples; all sequences): no significant discrimination; concentration in infarcted vs non-ischemic myocardium [9]: more than threefold higher concentration; time to plateau concentration in dialysate [6]: 20 to 30 min; time of early peak in dialysate [6]: ≤ 10 min; distribution / enhancement in 6-hour-old myocardial infarction [7]: infarct accumulation
